Holding throughout (type): cell-based
Experiment [1] has as its system PD1-ss+10aa/Gaussia Luciferase. Description: Dox-Induced PD1-ss-Gluc Assay. The note with it: 24 hr doxycycline induction, 293FRT/TO cells, Gaussia luciferase signal; read-out: 24 hr Dox Inducible PD1ssGluc 293FRT/TO: Mean IC50. In short, it runs like this: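 Stable cell line carrying PD1-ss+10aa/Gaussia luciferase cDNA under T-REx (doxycycline-inducible) control, plated the day before assay. Compound dilutions in DMSO/media containing doxycycline added and incubated at 37° C, 5% CO2. Undefined stereocentres: data refer to stereoisomer mixtures.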

The test system of experiment [2] is TNFα-FL/Gaussia Luciferase. Put plainly: Dox Induced TNFα-FL-Gluc Assay. Conditions: 24 hr doxycycline induction, 293FRT/TO cells, Gaussia luciferase signal; read-out: 24 hr Dox Inducible TNFaFLGluc 293FRT/TO: Mean IC50. In short, it runs like this:
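A stable T-REx cell line carrying doxycycline-inducible TNFα-FL/Gaussia luciferase was plated the day before assay. Compound dilutions in DMSO/media containing doxycycline were then added and incubated at 37° C, 5% CO2.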

Experiment [3] deals with HER3-ss+4aa/Gaussia Luciferase. Description: Dox-Induced Her3-ss-Gluc Assay. Conditions: 24 hr doxycycline induction, 293FRT/TO cells, Gaussia luciferase signal; read-out: 24 hr Dox Inducible Her3(ss + 4)Gluc 293FRT/TO: Mean IC50. In short, it runs like this:
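Stable T-REx cell line carrying a doxycycline-regulated HER3-ss+4aa/Gaussia luciferase insert, plated the day before assay. Compound dilutions in DMSO/media with doxycycline added, then incubated at 37° C., 5% CO2. Stereoisomer mixtures tested where stereochemistry is not drawn.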

The test system of experiment [4] is IL-2-FL/Gaussia Luciferase. Description: Dox Induced IL2-FL-Gluc Assay. Conditions: 24 hr doxycycline induction, 293FRT/TO cells, Gaussia luciferase signal; read-out: 24 hr Dox Inducible IL2FLGIuc 293FRT/TO: Mean IC50. In short, it runs like this: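 Stable T-REx cell line expressing doxycycline-inducible IL-2-FL/Gaussia luciferase cDNA, plated the day before assay. Compound dilutions in DMSO/media containing doxycycline added and incubated at 37° C., 5% CO2. Unspecified stereochemistry means data refer to a stereoisomer mixture.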

The subject of experiment [5] is human multiple myeloma cell line NCI-H929. Description: H929 Cell Viability Assay. The note with it: 48 hr, NCI-H929 cells, Celltiter-Glo, read-out: 48 hr H929 Viability Celltiter-Glo: Mean EC50. As to the method: Plates were incubated at 37° C., 5% CO2 for 48 hours. After 48 hours, Celltiter-Glo® (Promega) was added to each well and luciferase signal was quantified using Tecan Infinite M1000 Pro for cell viability determination.
For chemical structures that include one or more stereoisomers, but are illustrated without indicating stereochemistry, the assay data refers to a mixture of stereoisomers.

Experiment [6] concerns human multiple myeloma cell line U266B1. Put plainly: U266 Cell Viability Assay. Conditions: U-266, 48 hr, U266B1 cells, Celltiter-Glo, read-out: 48 hr U266 Viability Celltiter-Glo: Mean EC50. In short, it runs like this: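 U266B1 myeloma cells treated with compound dilutions in DMSO/media for 48 h at 37 °C, 5% CO2. Viability read by CellTiter-Glo luminescence. Stereochemically undefined structures were tested as stereoisomer mixtures.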

This passage reports IC50 and EC50 results from patent US20220153732A1, “PROTEIN SECRETION INHIBITORS” (KEZAR LIFE SCIENCES, priority 2019, published 2022).

A value given as a limit tells only on which side of the number the result lay.

`O=C(Nc1nc(/C=C/c2ccc(F)cc2)cs1)c1cccn1Cc1ccncc1` [Compound A220, N-(4-(4-fluorostyryl)thiazol-2-yl)-1-(pyridin-4-ylmethyl)-1H-pyrrole-2-carboxamide]: the IC50 came to 0.086 µM in experiment [1], 3.75 µM in experiment [2], 0.329 µM in experiment [3] and 0.628 µM in experiment [4]. For the same molecule, the 50% effective concentration (EC50) in experiment [5] and in experiment [6] was over 25 µM each time.
For `CC(C)OC(C)(C)c1csc(NC(=O)c2cccn2C/C=C/c2ccncc2)n1` [Compound A221, N-(4-(2-isopropoxypropan-2-yl)thiazol-2-yl)-1-(3-(pyridin-4-yl)allyl)-1H-pyrrole-2-carboxamide], the IC50 in experiment [1], in experiment [2], in experiment [3] and in experiment [4] was over 25 µM each time. Besides, the half-maximal effective concentration (EC50) in experiment [5] and in experiment [6] was over 25 µM throughout.
Consider `O=C(Nc1nc(/C=C/c2ccoc2)cs1)c1cccn1Cc1ccncc1` [Compound A222, N-(4-(2-(furan-3-yl)vinyl)thiazol-2-yl)-1-(pyridin-4-ylmethyl)-1H-pyrrole-2-carboxamide], for which the IC50 in experiment [1] worked out at 0.348 µM; in experiment [2] it was 7.7 µM; in experiment [3], 1.8 µM; in experiment [4], 2.27 µM. The EC50 in experiment [5] was 19.1 µM; in experiment [6], over 25 µM.
With `CC(=O)Nc1ccc(/C=C/c2csc(NC(=O)c3cccn3Cc3ccncc3)n2)cc1` [Compound A223, N-(4-(4-acetamidostyryl)thiazol-2-yl)-1-(pyridin-4-ylmethyl)-1H-pyrrole-2-carboxamide], the IC50 is 0.513 µM in experiment [1], over 25 µM in experiment [2], 3.12 µM in experiment [3] and 8.04 µM in experiment [4]. Moreover, the figures for the EC50 in experiment [5] and in experiment [6] were 22.3 µM and over 25 µM, respectively.
Turning to `N#Cc1ccc(/C=C/c2csc(NC(=O)c3cccn3Cc3ccncc3)n2)cc1` [Compound A224, N-(4-(4-cyanostyryl)thiazol-2-yl)-1-(pyridin-4-ylmethyl)-1H-pyrrole-2-carboxamide], the IC50 in experiment [1] is 0.141 µM; in experiment [2] it was over 25 µM; in experiment [3], 0.296 µM; in experiment [4], over 25 µM. Also, the EC50 in experiment [5] is 20.5 µM; in experiment [6], over 25 µM.
With `CC(C)(CCc1ccccc1)c1csc(NC(=O)c2cccn2Cc2ccncc2)n1` [Compound A225, N-(4-(2-methyl-4-phenylbutan-2-yl)thiazol-2-yl)-1-(pyridin-4-ylmethyl)-1H-pyrrole-2-carboxamide], the IC50 in experiment [1] is 0.324 µM; in experiment [2], 3.84 µM; in experiment [3], 0.558 µM; in experiment [4], 0.486 µM. Also, the values for the EC50 in experiment [5] and in experiment [6] were 8.89 µM and over 25 µM, respectively.
Take `CC(C)OC(C)(C)c1csc(NC(=O)c2cccn2CCOc2ccncc2)n1` [Compound A226, N-(4-(2-isopropoxypropan-2-yl)thiazol-2-yl)-1-(2-(pyridin-4-yloxy)ethyl)-1H-pyrrole-2-carboxamide]: the IC50 is 0.302 µM in experiment [1], 7.08 µM in experiment [2], 0.426 µM in experiment [3] and 0.32 µM in experiment [4]. Moreover, the concentration for a half-maximal effect (EC50) in experiment [5] is 11.9 µM; in experiment [6] it was over 25 µM.
On to `O=C(Nc1nc(/C=C/c2ccc([N+](=O)[O-])cc2)cs1)c1cccn1Cc1ccncc1` [Compound A227], for which the IC50 worked out at 0.053 µM in experiment [1], 1.9 µM in experiment [2], 0.379 µM in experiment [3] and 0.625 µM in experiment [4]. The EC50 in experiment [5] is 8.95 µM; in experiment [6], over 21.4 µM.
With `CC(C)(COc1ccccc1)c1csc(NC(=O)c2cccn2Cc2ccncc2)n1` [Compound A228], the IC50 in experiment [1] turned out to be 0.335 µM; in experiment [2], 3.59 µM; in experiment [3] it was 0.73 µM; in experiment [4], 0.933 µM. Moreover, the EC50 is 9.25 µM in experiment [5] and over 25 µM in experiment [6].
With `CN(C)c1ccc(/C=C/c2csc(NC(=O)c3cccn3Cc3ccncc3)n2)cc1` [Compound A229], the IC50 was found to be 0.066 µM in experiment [1], 4.58 µM in experiment [2], 0.568 µM in experiment [3] and 1.05 µM in experiment [4]. In addition, the concentration giving a half-maximal response (EC50) in experiment [5] is 24.9 µM; in experiment [6], over 25 µM.
Take `NC(=O)c1ccc(/C=C/c2csc(NC(=O)c3cccn3Cc3ccncc3)n2)cc1` [Compound A231]: the IC50 is 0.506 µM in experiment [1], 11.2 µM in experiment [2], over 25 µM in experiment [3] and 7.07 µM in experiment [4]. Moreover, the EC50 in experiment [5] is 16.8 µM; in experiment [6] it was over 25 µM.
Take `O=C(Nc1nc(/C=C/c2ccoc2)cs1)c1cccn1CCCc1ccncc1` [Compound A232, N-(4-(2-(furan-3-yl)vinyl)thiazol-2-yl)-1-(3-(pyridin-4-yl)propyl)-1H-pyrrole-2-carboxamide]: the IC50 was determined as 2.99 µM in experiment [1], 21.5 µM in experiment [2], 14.9 µM in experiment [3] and 8.6 µM in experiment [4]. For the same molecule, the EC50 in experiment [5] worked out at 13.4 µM; in experiment [6], 19.7 µM.
On to `O=C(Nc1nc(/C=C/c2ccc(N3CCCCC3)cc2)cs1)c1cccn1Cc1ccncc1` [Compound A233], for which the IC50 in experiment [1] amounted to 0.056 µM; in experiment [2] it was 2.22 µM; in experiment [3], 0.304 µM; in experiment [4] it was 0.633 µM. The EC50 in experiment [5] was 5.79 µM; in experiment [6], over 25 µM.
On to `O=C(Nc1nc(/C=C/c2ccc3c(c2)OCO3)cs1)c1cccn1Cc1ccncc1` [Compound A234, N-(4-(2-(benzo[d][1,3]dioxo1-5-yl)vinyl)thiazol-2-yl)-1-(pyridin-4-ylmethyl)-1H-pyrrole-2-carboxamide], for which the IC50 was 0.063 µM in experiment [1], over 25 µM in experiment [2], 0.216 µM in experiment [3] and 0.341 µM in experiment [4]. Also, the EC50 in experiment [5] is 4.49 µM; in experiment [6], over 25 µM.
Consider `O=C(Nc1nc(/C=C/c2ccc3c(c2)OC(F)(F)O3)cs1)c1cccn1Cc1ccncc1` [Compound A235, N-(4-(2-(2,2-difluorobenzo[d][1,3]dioxo1-5-yl)vinyl)thiazol-2-yl)-1-(pyridin-4-ylmethyl)-1H-pyrrole-2-carboxamide], for which the IC50 in experiment [1] was 0.063 µM; in experiment [2], over 25 µM; in experiment [3], 0.145 µM; in experiment [4], 0.237 µM. The concentration for a half-maximal effect (EC50) in experiment [5] is 4.15 µM; in experiment [6] it was over 25 µM.
Regarding `CC(C)Oc1ccc(/C=C/c2csc(NC(=O)c3cccn3Cc3ccncc3)n2)cc1` [Compound A236, N-(4-(4-isopropoxystyryl)thiazol-2-yl)-1-(pyridin-4-ylmethyl)-1H-pyrrole-2-carboxamide], the IC50 in experiment [1] stood at 0.087 µM; in experiment [2], 3.24 µM; in experiment [3], 0.535 µM; in experiment [4], 1.01 µM. The values for the EC50 in experiment [5] and in experiment [6] were 7.7 µM and over 25 µM, respectively.
For `O=C(Nc1nc(/C=C/c2ccc3ncccc3c2)cs1)c1cccn1Cc1ccncc1` [Compound A237], the IC50 is 0.288 µM in experiment [1], over 25 µM in experiment [2], 1.12 µM in experiment [3] and 1.87 µM in experiment [4]. Besides, the half-maximal effective concentration (EC50) was 18.7 µM in experiment [5] and over 25 µM in experiment [6].
Take `CC(C)OC(C)(C)c1csc(NC(=O)c2cccn2Cc2ccncc2Cl)n1` [Compound A238, 1-((3-chloropyridin-4-yl)methyl)-N-(4-(2-isopropoxypropan-2-yl)thiazol-2-yl)-1H-pyrrole-2-carboxamide]: the IC50 in experiment [1] was determined as 0.643 µM; in experiment [2], 18.3 µM; in experiment [3], 1.57 µM; in experiment [4], 1.2 µM. Moreover, the EC50 in experiment [5] and in experiment [6] was over 25 µM each time.
`CNC(=O)c1ccc(/C=C/c2csc(NC(=O)c3cccn3Cc3ccncc3)n2)cc1` [Compound A239]: the IC50 in experiment [1] was 1.51 µM; in experiment [2], over 25 µM; in experiment [3], over 25 µM; in experiment [4] it was over 25 µM. Moreover, the EC50 in experiment [5] and in experiment [6] was over 25 µM each time.
